Data published in patent US20230391768A2, “IMIDAZOPYRIDINE DERIVATIVES AND AZA-IMIDAZOPYRIDINE DERIVATIVES AS JANUS KINASE 2 INHIBITORS AND USES THEREOF” (Dana-Farber Cancer Institute, Inc., priority 2018, published 2023).

Assays:
Assay in all cases: KINOMEscan
Assay type in all cases: binding
[1] = molecular target: ABL1(T315I)-phosphorylated (Homo sapiens (Human), UniProt P00519, T315I); settings: read-out: percent of control
Protocol: (§1) In vitro profiling of Compound I-2 (1 μM) was performed using the DiscoveRx KINOMEscan® platform.

BLK = BLK (Homo sapiens (Human), UniProt P51451); settings: read-out: percent of control
BLK, sequence (P51451 whole entry): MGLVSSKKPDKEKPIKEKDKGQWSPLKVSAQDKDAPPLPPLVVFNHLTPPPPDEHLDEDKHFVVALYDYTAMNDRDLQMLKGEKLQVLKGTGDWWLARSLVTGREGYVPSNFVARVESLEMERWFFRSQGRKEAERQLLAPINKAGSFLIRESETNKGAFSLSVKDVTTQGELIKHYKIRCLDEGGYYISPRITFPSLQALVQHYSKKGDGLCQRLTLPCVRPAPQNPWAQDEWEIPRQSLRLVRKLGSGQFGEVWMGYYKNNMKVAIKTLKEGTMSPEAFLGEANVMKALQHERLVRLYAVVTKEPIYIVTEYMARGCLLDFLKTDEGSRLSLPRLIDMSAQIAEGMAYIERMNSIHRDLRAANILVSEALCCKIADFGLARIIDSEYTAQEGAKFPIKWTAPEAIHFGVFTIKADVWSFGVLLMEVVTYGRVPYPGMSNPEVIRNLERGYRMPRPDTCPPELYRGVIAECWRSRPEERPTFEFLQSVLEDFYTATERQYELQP
Protocol: as §1

CAMKK1 = CAMKK1 (Homo sapiens (Human), UniProt Q8N5S9); settings: read-out: percent of control
Protocol: as §1

CDC2L1 = CDC2L1 (Homo sapiens (Human), UniProt P21127); settings: read-out: percent of control
Protocol: as §1

CHEK1 = CHEK1 (Homo sapiens (Human), UniProt O14757); settings: read-out: percent of control
Protocol: as §1

CLK3 = CLK3 (Homo sapiens (Human), UniProt P49761); settings: read-out: percent of control
Protocol: as §1

DLK = DLK (Homo sapiens (Human), UniProt Q12852); settings: read-out: percent of control
DLK, sequence (Q12852 whole entry): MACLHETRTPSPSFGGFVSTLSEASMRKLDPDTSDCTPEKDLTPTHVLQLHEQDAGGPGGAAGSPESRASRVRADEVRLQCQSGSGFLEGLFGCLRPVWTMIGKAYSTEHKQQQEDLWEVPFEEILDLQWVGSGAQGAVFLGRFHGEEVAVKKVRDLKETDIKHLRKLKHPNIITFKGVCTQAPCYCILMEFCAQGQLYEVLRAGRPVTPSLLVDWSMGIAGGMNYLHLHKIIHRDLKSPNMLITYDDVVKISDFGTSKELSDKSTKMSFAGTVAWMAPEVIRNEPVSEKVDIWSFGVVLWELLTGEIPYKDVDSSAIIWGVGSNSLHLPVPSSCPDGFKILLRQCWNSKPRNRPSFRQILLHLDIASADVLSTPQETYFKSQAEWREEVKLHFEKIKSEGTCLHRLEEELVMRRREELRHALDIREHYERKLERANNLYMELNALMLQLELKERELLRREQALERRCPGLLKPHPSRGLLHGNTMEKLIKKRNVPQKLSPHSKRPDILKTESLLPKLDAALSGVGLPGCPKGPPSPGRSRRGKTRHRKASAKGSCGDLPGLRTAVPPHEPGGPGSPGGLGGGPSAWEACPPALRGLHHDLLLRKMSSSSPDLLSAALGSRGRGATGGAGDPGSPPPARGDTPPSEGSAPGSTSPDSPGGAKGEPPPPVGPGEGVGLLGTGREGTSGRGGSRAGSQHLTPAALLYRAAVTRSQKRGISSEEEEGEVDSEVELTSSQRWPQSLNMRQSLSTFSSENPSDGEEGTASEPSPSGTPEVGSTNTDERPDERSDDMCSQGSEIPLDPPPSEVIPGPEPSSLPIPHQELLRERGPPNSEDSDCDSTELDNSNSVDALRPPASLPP
Protocol: as §1

DMPK = DMPK (Homo sapiens (Human), UniProt Q09013); settings: read-out: percent of control
Protocol: as §1

EGFR(L747-T751del,Sins) = settings: 1 μM
Protocol: as §1

EPHA3 = EPHA3 (Homo sapiens (Human), UniProt P29320); settings: read-out: percent of control
Protocol: as §1

EPHB6 = EPHB6 (Homo sapiens (Human), UniProt O15197); settings: read-out: percent of control
Protocol: as §1

ERBB4 = ERBB4 (Homo sapiens (Human), UniProt Q15303); settings: read-out: percent of control
Protocol: as §1

FGFR2 = FGFR2 (Homo sapiens (Human), UniProt P21802); settings: read-out: percent of control
Protocol: as §1

FLT1 = FLT1 (Homo sapiens (Human), UniProt P17948); settings: read-out: percent of control
FLT1, sequence (P17948 27-1338): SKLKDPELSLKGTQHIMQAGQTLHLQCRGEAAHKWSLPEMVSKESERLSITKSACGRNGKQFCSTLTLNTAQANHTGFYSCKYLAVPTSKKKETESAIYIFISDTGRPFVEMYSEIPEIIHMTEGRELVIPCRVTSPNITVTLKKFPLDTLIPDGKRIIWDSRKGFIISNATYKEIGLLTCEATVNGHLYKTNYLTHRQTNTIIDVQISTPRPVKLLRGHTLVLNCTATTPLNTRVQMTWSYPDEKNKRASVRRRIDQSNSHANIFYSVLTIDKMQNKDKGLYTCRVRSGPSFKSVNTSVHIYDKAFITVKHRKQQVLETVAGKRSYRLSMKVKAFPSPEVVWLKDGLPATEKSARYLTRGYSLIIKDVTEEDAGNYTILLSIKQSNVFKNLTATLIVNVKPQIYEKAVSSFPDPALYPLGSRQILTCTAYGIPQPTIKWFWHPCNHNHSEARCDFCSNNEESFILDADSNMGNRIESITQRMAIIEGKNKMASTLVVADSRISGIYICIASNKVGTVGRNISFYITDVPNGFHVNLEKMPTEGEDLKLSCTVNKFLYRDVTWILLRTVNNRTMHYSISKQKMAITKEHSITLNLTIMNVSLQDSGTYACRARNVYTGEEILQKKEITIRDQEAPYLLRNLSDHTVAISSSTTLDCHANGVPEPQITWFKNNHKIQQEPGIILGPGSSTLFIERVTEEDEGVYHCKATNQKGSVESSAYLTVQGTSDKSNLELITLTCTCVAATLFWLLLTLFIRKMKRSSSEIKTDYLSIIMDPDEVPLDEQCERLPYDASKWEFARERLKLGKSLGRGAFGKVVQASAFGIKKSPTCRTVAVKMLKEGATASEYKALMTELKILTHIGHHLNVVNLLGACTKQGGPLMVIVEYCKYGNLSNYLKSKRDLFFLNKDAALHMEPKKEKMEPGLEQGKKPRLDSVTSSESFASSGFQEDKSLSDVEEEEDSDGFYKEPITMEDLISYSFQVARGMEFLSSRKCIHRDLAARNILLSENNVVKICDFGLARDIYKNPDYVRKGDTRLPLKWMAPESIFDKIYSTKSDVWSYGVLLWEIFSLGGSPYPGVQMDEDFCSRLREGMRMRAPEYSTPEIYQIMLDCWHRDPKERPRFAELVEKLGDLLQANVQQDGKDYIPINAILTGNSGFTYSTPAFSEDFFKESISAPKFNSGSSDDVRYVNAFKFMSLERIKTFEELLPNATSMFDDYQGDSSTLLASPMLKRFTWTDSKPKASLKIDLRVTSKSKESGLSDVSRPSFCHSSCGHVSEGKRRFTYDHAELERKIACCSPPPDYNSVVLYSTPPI
Protocol: as §1

FRK = FRK (Homo sapiens (Human), UniProt P42685); settings: read-out: percent of control
FRK, sequence (P42685 whole entry): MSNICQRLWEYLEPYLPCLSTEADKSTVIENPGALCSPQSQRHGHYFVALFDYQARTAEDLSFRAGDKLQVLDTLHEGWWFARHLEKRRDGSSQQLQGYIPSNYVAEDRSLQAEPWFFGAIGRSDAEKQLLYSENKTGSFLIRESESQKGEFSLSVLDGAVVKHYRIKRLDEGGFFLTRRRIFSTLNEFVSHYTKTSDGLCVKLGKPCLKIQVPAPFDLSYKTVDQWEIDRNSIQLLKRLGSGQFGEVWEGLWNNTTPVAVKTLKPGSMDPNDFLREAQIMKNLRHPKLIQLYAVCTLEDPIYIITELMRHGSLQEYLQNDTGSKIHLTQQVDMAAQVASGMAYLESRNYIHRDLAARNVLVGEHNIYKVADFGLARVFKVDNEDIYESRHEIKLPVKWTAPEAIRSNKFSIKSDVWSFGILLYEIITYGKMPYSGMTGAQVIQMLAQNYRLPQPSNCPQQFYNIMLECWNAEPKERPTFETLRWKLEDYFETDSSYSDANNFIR
Protocol: as §1

IGF1R = IGF1R (Homo sapiens (Human), UniProt P08069); settings: read-out: percent of control
Protocol: as §1

INSRR = INSRR (Homo sapiens (Human), UniProt P14616); settings: read-out: percent of control
Protocol: as §1

KIT(D816V) = KIT(D816V) (Homo sapiens (Human), UniProt P10721, D816V); settings: read-out: percent of control
Protocol: as §1

KIT(L576P) = KIT(L576P) (Homo sapiens (Human), UniProt P10721, L576P); settings: read-out: percent of control
Protocol: as §1

LRRK2 = LRRK2 (Homo sapiens (Human), UniProt Q5S007); settings: read-out: percent of control
Protocol: as §1

MST1R = MST1R (Homo sapiens (Human), UniProt Q04912); settings: read-out: percent of control
Protocol: as §1

MYLK = MYLK (Homo sapiens (Human), UniProt Q15746); settings: read-out: percent of control
Protocol: as §1

NDR1 = NDR1 (Homo sapiens (Human), UniProt Q15208); settings: read-out: percent of control
Protocol: as §1

NIM1 = NIM1 (Homo sapiens (Human), UniProt Q8IY84); settings: read-out: percent of control
Protocol: as §1

PHKG1 = PHKG1 (Homo sapiens (Human), UniProt Q16816); settings: read-out: percent of control
PHKG1, sequence (Q16816 whole entry): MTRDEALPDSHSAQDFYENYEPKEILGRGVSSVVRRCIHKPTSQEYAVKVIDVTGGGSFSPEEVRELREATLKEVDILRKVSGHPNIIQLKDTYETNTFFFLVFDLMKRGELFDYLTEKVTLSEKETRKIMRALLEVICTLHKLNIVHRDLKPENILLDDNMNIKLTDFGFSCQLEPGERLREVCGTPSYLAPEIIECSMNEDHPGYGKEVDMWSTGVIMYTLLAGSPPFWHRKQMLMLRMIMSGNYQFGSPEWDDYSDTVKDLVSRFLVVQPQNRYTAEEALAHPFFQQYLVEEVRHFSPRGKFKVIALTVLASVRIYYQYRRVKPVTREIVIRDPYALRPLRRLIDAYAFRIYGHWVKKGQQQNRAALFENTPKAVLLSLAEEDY
Protocol: as §1

PRKD1 = PRKD1 (Homo sapiens (Human), UniProt Q15139); settings: read-out: percent of control
PRKD1, sequence (Q15139 whole entry): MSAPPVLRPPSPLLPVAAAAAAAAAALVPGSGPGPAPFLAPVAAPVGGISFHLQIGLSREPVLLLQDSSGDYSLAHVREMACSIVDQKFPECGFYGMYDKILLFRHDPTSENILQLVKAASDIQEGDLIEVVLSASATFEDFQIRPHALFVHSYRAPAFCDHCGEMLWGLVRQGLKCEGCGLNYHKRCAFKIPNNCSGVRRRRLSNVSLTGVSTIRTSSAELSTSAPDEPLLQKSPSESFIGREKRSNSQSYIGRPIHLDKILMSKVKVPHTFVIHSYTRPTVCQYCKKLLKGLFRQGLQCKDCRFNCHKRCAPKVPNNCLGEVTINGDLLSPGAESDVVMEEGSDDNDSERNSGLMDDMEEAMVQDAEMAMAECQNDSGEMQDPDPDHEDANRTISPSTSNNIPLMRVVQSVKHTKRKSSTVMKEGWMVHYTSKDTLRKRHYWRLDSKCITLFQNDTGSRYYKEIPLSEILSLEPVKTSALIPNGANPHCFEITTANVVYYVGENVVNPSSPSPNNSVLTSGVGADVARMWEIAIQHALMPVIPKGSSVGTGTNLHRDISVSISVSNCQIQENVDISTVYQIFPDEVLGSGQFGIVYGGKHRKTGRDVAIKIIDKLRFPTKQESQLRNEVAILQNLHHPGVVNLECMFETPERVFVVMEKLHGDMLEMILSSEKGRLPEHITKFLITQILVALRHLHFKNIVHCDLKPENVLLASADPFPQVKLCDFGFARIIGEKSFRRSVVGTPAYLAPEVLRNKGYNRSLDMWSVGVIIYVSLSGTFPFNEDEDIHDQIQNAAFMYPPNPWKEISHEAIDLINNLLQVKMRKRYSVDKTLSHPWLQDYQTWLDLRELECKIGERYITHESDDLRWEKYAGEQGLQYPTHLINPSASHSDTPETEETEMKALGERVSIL
Protocol: as §1

PRKG1 = PRKG1 (Homo sapiens (Human), UniProt Q13976); settings: read-out: percent of control
Protocol: as §1

ROCK2 = ROCK2 (Homo sapiens (Human), UniProt O75116); settings: read-out: percent of control
Protocol: as §1

SGK = SGK (Homo sapiens (Human), UniProt O00141); settings: read-out: percent of control
Protocol: as §1

SLK = SLK (Homo sapiens (Human), UniProt Q9H2G2); settings: read-out: percent of control
Protocol: as §1

SNARK = SNARK (Homo sapiens (Human), UniProt Q9H093); settings: read-out: percent of control
Protocol: as §1

SNRK = SNRK (Homo sapiens (Human), UniProt Q9NRH2); settings: read-out: percent of control
Protocol: as §1

TRKA = TRKA (Homo sapiens (Human), UniProt P04629); settings: read-out: percent of control
Protocol: as §1

TXK = TXK (Homo sapiens (Human), UniProt P42681); settings: read-out: percent of control
Protocol: as §1

[2] = molecular target: TYK2(JH1domain-catalytic) (Homo sapiens (Human), UniProt P29597); settings: read-out: percent of control
Protocol: as §1

ULK = ULK (Homo sapiens (Human), UniProt O75385); settings: read-out: percent of control
Protocol: as §1

WEE2 = WEE2 (Homo sapiens (Human), UniProt P0C1S8); settings: read-out: percent of control
WEE2, sequence (P0C1S8 whole entry): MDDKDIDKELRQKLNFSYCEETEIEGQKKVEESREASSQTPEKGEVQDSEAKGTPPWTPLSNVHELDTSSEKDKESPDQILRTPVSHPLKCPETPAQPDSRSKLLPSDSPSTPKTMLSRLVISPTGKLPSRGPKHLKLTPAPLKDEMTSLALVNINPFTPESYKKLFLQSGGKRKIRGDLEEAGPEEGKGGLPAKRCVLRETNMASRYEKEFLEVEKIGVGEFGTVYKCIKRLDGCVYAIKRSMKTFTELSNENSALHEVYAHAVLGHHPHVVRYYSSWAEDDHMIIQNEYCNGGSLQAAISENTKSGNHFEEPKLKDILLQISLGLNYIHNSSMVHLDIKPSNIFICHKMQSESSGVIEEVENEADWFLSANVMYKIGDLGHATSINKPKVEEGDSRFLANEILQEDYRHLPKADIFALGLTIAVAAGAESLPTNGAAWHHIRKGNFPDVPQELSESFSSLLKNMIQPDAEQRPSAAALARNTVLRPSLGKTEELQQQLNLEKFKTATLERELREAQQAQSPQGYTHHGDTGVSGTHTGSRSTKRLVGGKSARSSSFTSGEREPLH
Protocol: as §1

WNK1 = WNK1 (Homo sapiens (Human), UniProt Q9H4A3); settings: read-out: percent of control
Protocol: as §1

WNK4 = WNK4 (Homo sapiens (Human), UniProt Q96J92); settings: read-out: percent of control
Protocol: as §1

CCN1CCN(Cc2cc(NC(=O)c3ccc(C)c(-c4ccc5nc(NC(=O)C6CC6)cn5n4)c3)cc(C(F)(F)F)c2)CC1 [Compound I-2, 3-(2-(cyclopropanecarboxamido)imidazo[1,2-b]pyridazin-6-yl)-N-(3-((4-ethylpiperazin-1-yl)methyl)-5-(trifluoromethyl)phenyl)-4-methylbenzamide]
remaining binding at 1 µM [1]: 1.4% | remaining binding at 1 µM (BLK): 0.75% | remaining binding at 1 µM (CAMKK1): 12% | remaining binding at 1 µM (CDC2L1): 44% | remaining binding at 1 µM (CHEK1): 100% | remaining binding at 1 µM (CLK3): 79% | remaining binding at 1 µM (DLK): 15% | remaining binding at 1 µM (DMPK): 87% | percent of control (EGFR(L747-T751del,Sins)): 29% | remaining binding at 1 µM (EPHA3): 41% | remaining binding at 1 µM (EPHB6): 78% | remaining binding at 1 µM (ERBB4): 71% | remaining binding at 1 µM (FGFR2): 67% | remaining binding at 1 µM (FLT1): 3.2% | remaining binding at 1 µM (FRK): 3.9% | remaining binding at 1 µM (IGF1R): 0.7% | remaining binding at 1 µM (INSRR): 0.55% | remaining binding at 1 µM (KIT(D816V)): 32% | remaining binding at 1 µM (KIT(L576P)): 0% | remaining binding at 1 µM (LRRK2): 100% | remaining binding at 1 µM (MST1R): 83% | remaining binding at 1 µM (MYLK): 65% | remaining binding at 1 µM (NDR1): 100% | remaining binding at 1 µM (NIM1): 99% | remaining binding at 1 µM (PHKG1): 99% | remaining binding at 1 µM (PRKD1): 93% | remaining binding at 1 µM (PRKG1): 100% | remaining binding at 1 µM (ROCK2): 82% | remaining binding at 1 µM (SGK): 83% | remaining binding at 1 µM (SLK): 1.6% | remaining binding at 1 µM (SNARK): 100% | remaining binding at 1 µM (SNRK): 84% | remaining binding at 1 µM (TRKA): 0.75% | remaining binding at 1 µM (TXK): 16% | remaining binding at 1 µM [2]: 54% | remaining binding at 1 µM (ULK): 89% | remaining binding at 1 µM (WEE2): 100% | remaining binding at 1 µM (WNK1): 100% | remaining binding at 1 µM (WNK4): 75%

CCN1CCN(Cc2cc(NC(=O)c3ccc(C)c(-c4ccc5nc(NC(=O)C6CC6)cn5c4)c3)cc(C(F)(F)F)c2)CC1 [Compound I-6, 3-(2-(cyclopropanecarboxamido)imidazo[1,2-a]pyridin-6-yl)-N-(3-((4-ethylpiperazin-1-yl)methyl)-5-(trifluoromethyl)phenyl)-4-methylbenzamide]
remaining binding at 1 µM [1]: 2.2% | remaining binding at 1 µM (BLK): 0.2% | remaining binding at 1 µM (CAMKK1): 53% | remaining binding at 1 µM (CDC2L1): 33% | remaining binding at 1 µM (CHEK1): 100% | remaining binding at 1 µM (CLK3): 84% | remaining binding at 1 µM (DLK): 26% | remaining binding at 1 µM (DMPK): 100% | percent of control (EGFR(L747-T751del,Sins)): 12% | remaining binding at 1 µM (EPHA3): 34% | remaining binding at 1 µM (EPHB6): 64% | remaining binding at 1 µM (ERBB4): 53% | remaining binding at 1 µM (FGFR2): 57% | remaining binding at 1 µM (FLT1): 3.2% | remaining binding at 1 µM (FRK): 3.2% | remaining binding at 1 µM (IGF1R): 11% | remaining binding at 1 µM (INSRR): 3.8% | remaining binding at 1 µM (KIT(D816V)): 22% | remaining binding at 1 µM (KIT(L576P)): 1.8% | remaining binding at 1 µM (LRRK2): 87% | remaining binding at 1 µM (MST1R): 100% | remaining binding at 1 µM (MYLK): 79% | remaining binding at 1 µM (NDR1): 85% | remaining binding at 1 µM (NIM1): 88% | remaining binding at 1 µM (PHKG1): 93% | remaining binding at 1 µM (PRKD1): 87% | remaining binding at 1 µM (PRKG1): 87% | remaining binding at 1 µM (ROCK2): 94% | remaining binding at 1 µM (SGK): 92% | remaining binding at 1 µM (SLK): 2.4% | remaining binding at 1 µM (SNARK): 100% | remaining binding at 1 µM (SNRK): 99% | remaining binding at 1 µM (TRKA): 0% | remaining binding at 1 µM (TXK): 19% | remaining binding at 1 µM [2]: 41% | remaining binding at 1 µM (ULK): 100% | remaining binding at 1 µM (WEE2): 95% | remaining binding at 1 µM (WNK1): 100% | remaining binding at 1 µM (WNK4): 100%
